{"source": "ChEMBL document CHEMBL5465560", "about": "“Selectivity Literature for EUbOPEN Chemogenomic Library” (2024)", "key": {"[1]": {"biological_target": "Phosphatidylinositol 4-kinase beta (Homo sapiens, UniProt Q9UBF8)", "sequence (Q9UBF8 2-816 limits assumed)": "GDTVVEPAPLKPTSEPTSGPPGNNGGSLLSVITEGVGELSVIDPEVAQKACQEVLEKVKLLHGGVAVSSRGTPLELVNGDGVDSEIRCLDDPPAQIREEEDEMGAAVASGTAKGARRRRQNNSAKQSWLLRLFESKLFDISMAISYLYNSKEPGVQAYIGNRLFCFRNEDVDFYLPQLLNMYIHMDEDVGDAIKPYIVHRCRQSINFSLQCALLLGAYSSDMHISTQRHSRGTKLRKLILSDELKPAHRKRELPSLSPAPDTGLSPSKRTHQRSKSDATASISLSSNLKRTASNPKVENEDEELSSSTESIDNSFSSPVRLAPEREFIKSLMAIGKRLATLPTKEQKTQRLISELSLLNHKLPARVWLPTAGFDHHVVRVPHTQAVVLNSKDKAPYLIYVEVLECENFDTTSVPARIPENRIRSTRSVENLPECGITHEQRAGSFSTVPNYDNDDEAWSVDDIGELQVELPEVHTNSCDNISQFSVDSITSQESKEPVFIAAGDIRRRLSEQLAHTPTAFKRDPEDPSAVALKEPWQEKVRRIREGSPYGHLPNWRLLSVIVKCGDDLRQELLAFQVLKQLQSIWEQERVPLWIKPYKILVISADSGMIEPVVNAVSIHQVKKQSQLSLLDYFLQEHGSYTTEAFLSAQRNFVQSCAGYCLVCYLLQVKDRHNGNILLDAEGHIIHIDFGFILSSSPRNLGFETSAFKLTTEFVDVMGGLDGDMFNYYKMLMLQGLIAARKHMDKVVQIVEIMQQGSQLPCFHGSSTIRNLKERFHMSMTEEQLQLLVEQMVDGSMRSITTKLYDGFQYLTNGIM", "assay": "Selectivity interaction (KinomeScan (DiscoverX)) EUB0000092b PI4KB", "settings": "at 10 µM"}, "[2]": {"biological_target": "Dual specificity mitogen-activated protein kinase kinase 2 (Homo sapiens) (UniProt P36507)", "sequence (P36507 whole entry)": "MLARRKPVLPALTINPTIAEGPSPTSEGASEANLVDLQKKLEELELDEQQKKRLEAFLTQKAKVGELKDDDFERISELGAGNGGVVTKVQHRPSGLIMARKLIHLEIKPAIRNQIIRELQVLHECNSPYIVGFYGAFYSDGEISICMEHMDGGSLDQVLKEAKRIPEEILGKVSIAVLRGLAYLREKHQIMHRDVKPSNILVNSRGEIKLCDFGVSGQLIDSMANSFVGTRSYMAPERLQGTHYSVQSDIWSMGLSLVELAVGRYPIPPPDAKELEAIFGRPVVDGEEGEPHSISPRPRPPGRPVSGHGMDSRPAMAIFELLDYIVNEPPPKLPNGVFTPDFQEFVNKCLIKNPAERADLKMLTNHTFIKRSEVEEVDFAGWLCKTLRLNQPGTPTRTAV", "assay": "Selectivity interaction (KinomeScan (DiscoverX)) EUB0000092b MAP2K2", "settings": "at 10 µM"}, "[3]": {"biological_target": "Adenosine receptor A2a (Homo sapiens, UniProt P29274)", "sequence (P29274 whole entry)": "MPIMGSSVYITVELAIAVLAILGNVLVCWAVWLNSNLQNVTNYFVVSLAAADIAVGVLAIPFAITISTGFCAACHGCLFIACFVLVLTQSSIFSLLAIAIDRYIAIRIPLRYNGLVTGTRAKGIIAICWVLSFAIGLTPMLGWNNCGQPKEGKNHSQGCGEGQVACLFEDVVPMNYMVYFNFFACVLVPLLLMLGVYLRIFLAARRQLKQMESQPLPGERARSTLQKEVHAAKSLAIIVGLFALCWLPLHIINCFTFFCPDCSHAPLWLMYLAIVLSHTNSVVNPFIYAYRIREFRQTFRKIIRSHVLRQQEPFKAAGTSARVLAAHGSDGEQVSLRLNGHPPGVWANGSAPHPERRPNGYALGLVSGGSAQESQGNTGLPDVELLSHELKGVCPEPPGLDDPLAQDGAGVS", "assay": "Selectivity interaction (Safety Panel 44tm (Eurofins)) EUB0000162b ADORA2A", "settings": "at 10 µM"}, "[4]": {"biological_target": "Serine/threonine-protein kinase Nek7 (Homo sapiens) (UniProt Q8TDX7)", "assay": "Selectivity interaction (Kinase panel (DSF assay)) EUB0001559a NEK7"}, "[5]": {"biological_target": "Dual specificity protein kinase CLK4 (Homo sapiens, UniProt Q9HAZ1)", "sequence (Q9HAZ1 whole entry, looked up)": "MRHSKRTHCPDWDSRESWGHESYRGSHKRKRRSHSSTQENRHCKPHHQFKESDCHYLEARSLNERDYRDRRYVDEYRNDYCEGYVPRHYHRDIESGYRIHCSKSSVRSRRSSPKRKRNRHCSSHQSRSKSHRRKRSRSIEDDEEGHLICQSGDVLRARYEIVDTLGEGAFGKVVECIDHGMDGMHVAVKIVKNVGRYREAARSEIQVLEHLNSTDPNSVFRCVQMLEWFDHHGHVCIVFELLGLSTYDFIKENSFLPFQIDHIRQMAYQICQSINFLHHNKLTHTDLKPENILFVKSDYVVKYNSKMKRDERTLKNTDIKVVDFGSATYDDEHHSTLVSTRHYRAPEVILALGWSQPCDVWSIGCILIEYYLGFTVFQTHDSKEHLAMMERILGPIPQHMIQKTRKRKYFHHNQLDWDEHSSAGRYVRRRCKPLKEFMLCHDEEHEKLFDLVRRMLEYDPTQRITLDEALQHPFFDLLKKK", "settings": "at 10 µM"}, "[6]": {"biological_target": "T1, Dual specificity mitogen-activated protein kinase kinase 3 (Homo sapiens) (UniProt P46734)", "T1 sequence (whole entry)": "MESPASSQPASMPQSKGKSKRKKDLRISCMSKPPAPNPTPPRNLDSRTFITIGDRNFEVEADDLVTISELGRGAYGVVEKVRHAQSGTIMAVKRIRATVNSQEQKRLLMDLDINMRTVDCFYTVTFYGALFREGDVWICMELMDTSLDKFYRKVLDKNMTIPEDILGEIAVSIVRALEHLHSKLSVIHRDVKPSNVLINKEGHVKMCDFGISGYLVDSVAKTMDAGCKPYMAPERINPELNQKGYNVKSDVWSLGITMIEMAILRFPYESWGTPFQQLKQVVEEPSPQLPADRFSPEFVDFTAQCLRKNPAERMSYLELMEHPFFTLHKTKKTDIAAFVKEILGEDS", "assay": "Selectivity interaction (ActivX KiNativ screen (kinase selectivity in THP-1 cell lysates)) EUB0000639a MAP2K3", "assay_type": "subcellular", "settings": "lysate, at 1 µM"}, "[7]": {"biological_target": "Fibroblast growth factor receptor 4 (Homo sapiens, UniProt P22455)", "assay": "Selectivity interaction (SelectScreen profiling (Invitrogen)) EUB0000607a FGFR4", "settings": "at 2 µM"}, "[8]": {"biological_target": "Serine/threonine-protein kinase SIK2 (Homo sapiens) (UniProt Q9H0K1)", "sequence (Q9H0K1 whole entry, looked up)": "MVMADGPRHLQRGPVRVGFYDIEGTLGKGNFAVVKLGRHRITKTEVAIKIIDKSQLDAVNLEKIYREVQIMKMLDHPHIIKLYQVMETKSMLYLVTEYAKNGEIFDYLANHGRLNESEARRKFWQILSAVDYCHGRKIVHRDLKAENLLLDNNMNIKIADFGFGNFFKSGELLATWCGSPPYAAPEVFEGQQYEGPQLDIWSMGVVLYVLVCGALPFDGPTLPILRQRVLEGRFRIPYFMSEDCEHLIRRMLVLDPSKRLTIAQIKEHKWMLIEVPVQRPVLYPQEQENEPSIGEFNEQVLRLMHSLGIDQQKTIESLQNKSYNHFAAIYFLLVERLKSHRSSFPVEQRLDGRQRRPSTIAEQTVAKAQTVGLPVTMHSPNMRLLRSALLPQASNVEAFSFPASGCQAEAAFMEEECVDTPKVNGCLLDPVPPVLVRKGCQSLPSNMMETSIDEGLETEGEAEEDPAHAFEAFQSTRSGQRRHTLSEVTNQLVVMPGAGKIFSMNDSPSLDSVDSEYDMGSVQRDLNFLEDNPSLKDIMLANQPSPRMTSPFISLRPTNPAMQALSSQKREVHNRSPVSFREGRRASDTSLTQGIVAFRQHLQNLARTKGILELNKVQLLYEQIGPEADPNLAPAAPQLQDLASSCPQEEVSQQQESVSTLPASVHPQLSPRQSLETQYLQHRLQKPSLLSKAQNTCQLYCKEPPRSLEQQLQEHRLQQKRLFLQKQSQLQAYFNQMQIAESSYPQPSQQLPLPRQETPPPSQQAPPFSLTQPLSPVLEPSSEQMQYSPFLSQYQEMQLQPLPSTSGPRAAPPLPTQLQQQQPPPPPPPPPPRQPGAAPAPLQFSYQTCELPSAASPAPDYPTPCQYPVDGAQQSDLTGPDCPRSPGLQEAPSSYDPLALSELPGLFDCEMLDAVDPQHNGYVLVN", "assay": "Selectivity interaction (KinomeScan (DiscoverX)) EUB0001049a SIK2", "settings": "at 1 µM"}, "[9]": {"biological_target": "Cyclin-dependent kinase-like 1 (Homo sapiens) (UniProt Q00532)", "assay": "Selectivity interaction (KinomeScan (DiscoverX)) EUB0001049a CDKL1", "settings": "at 1 µM"}, "[10]": {"biological_target": "Tyrosine-protein kinase ABL1 (Homo sapiens, UniProt P00519)", "sequence (P00519 whole entry)": "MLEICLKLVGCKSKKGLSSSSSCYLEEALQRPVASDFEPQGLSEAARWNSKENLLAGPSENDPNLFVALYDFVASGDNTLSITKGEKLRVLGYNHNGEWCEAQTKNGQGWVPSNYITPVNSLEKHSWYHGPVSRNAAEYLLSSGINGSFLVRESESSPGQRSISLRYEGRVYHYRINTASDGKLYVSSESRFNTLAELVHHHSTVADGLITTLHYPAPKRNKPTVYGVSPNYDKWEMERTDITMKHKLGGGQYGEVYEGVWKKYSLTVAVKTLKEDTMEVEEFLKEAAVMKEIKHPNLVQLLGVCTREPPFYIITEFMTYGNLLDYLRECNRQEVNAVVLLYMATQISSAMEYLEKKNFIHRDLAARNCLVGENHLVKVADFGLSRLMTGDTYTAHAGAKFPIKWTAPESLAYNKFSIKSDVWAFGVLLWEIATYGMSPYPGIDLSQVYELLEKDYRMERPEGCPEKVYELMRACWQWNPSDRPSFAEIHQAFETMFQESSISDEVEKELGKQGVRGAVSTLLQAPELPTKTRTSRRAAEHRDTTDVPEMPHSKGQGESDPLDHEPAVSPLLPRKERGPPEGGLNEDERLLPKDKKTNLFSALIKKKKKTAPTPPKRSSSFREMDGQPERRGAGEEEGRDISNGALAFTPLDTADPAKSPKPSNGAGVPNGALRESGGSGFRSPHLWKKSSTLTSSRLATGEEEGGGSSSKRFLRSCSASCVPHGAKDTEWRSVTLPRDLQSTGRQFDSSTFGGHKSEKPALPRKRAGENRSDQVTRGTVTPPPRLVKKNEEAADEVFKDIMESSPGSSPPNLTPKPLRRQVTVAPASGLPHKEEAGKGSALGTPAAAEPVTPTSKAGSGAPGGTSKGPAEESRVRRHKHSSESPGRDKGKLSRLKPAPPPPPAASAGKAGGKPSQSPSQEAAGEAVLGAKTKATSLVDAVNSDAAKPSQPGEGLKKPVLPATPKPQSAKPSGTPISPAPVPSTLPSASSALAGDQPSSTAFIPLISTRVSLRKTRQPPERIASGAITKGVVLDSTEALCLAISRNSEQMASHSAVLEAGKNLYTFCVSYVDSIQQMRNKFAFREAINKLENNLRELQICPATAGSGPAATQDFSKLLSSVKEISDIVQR", "assay": "Selectivity interaction (KinomeScan (DiscoverX)) EUB0001049a ABL1", "settings": "at 1 µM"}, "[11]": {"biological_target": "Ribosomal protein S6 kinase alpha-3 (Homo sapiens, UniProt P51812)", "assay": "Selectivity interaction (KinomeScan (DiscoverX)) EUB0000695a RPS6KA3", "settings": "at 100 nM"}, "[12]": {"biological_target": "Serine/threonine-protein kinase PAK 2 (Homo sapiens) (UniProt Q13177)", "assay": "Selectivity interaction (KinomeScan (DiscoverX)) EUB0000695a PAK2", "settings": "at 100 nM"}, "[13]": {"biological_target": "Ribosomal protein S6 kinase alpha-1 (Homo sapiens, UniProt Q15418)", "sequence (Q15418 whole entry)": "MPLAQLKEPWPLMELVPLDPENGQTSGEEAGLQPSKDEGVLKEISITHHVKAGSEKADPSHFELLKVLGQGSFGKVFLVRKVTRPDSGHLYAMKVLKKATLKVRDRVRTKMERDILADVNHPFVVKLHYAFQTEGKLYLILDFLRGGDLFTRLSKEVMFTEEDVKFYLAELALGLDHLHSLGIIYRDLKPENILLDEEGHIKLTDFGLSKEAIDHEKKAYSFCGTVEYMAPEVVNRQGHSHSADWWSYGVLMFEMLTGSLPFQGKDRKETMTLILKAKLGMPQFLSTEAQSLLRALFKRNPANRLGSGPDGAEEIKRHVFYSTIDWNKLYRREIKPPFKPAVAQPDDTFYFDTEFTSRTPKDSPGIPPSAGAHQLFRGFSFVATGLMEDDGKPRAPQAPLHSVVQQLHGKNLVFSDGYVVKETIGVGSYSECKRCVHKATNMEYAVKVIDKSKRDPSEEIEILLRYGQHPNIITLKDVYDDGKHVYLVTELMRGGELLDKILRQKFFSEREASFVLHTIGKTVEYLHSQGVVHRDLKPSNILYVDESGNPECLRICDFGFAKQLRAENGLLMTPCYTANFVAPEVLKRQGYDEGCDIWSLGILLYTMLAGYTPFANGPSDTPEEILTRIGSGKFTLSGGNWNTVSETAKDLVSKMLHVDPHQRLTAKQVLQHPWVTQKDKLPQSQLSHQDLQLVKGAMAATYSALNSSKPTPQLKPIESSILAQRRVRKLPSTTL", "assay": "Selectivity interaction (KinomeScan (DiscoverX)) EUB0000595a RPS6KA1", "settings": "at 10 µM"}, "[14]": {"biological_target": "T2, Mitogen-activated protein kinase 12 (Homo sapiens) (UniProt P53778)", "T2 sequence (whole entry)": "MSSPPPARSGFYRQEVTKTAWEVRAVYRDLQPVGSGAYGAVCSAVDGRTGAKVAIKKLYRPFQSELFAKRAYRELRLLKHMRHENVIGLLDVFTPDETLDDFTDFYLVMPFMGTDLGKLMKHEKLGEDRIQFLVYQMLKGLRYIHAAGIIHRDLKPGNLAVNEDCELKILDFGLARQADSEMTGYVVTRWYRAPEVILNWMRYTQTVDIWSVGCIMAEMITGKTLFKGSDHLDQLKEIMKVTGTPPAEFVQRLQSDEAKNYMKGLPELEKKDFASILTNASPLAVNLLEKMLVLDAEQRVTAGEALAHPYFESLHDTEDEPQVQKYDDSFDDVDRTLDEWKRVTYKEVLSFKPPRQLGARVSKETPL", "assay": "Selectivity interaction (Kinase panel (literature)) EUB0001199aCl MAPK12", "settings": "at 1 µM"}, "[15]": {"biological_target": "CDK4/Cyclin D3 (Homo sapiens) (UniProt P11802+P30281)", "assay": "(§1) Selectivity interaction (KinomeScan (DiscoverX)) EUB0000618a CDK4", "assay_type": "protein-complex assay", "settings": "at 10 µM"}, "[16]": {"biological_target": "Cyclin-dependent kinase 4/cyclin D1 (Homo sapiens) (UniProt P11802+P24385)", "assay": "as §1", "assay_type": "protein-complex assay", "settings": "at 10 µM"}}}
{"smiles": "CCC(=O)N1CCN(c2ccc(-n3c(=O)ccc4cnc5ccc(-c6cnc7ccccc7c6)cc5c43)cc2C(F)(F)F)CC1", "values": [{"measurement": "% of control", "setting": "[1]", "result": 96, "unit": "%"}, {"measurement": "% of control", "setting": "[2]", "result": 100, "unit": "%"}]}
{"smiles": "CN(C)C(=O)Cn1cc(-c2ccc(-c3cncc4ccccc34)cc2)cn1", "values": [{"measurement": "% of control", "setting": "[3]", "result": 85, "unit": "%"}]}
{"smiles": "CN(C(=O)c1cnn2cccnc12)c1cc2c(cc1N1CCOCC1)C(=O)N(C[C@@H](F)C(C)(C)O)C2", "values": [{"measurement": "dTM", "setting": "[4]", "result": 0.5, "unit": "K"}]}
{"smiles": "Cc1cc([C@@H](C)Nc2ccccc2C(=O)O)c2nc(N3CCOCC3)cc(=O)n2c1", "note": "[AZD-6482]", "values": [{"measurement": "% of control", "setting": "[5]", "result": 68, "unit": "%"}]}
{"smiles": "CC[C@@H]1[C@H](F)C(=O)N[C@@H]1COc1nccc2cc(C(N)=O)c(OC)cc12", "note": "[ZIMLOVISERTIB]", "values": [{"measurement": "% of inhibition", "setting": "[6]", "result": -152, "unit": "%"}]}
{"smiles": "CNC(=O)Nc1ccc(-c2nc(N3CC4CCC(C3)O4)c3cnn(C4CCC5(CC4)OCCO5)c3n2)cc1", "values": [{"measurement": "% of inhibition", "setting": "[7]", "result": 4, "unit": "%"}]}
{"smiles": "COc1cc(Nc2nc(C)cc(-c3cnn4nc(OC)ccc34)n2)cc(C(F)(F)F)c1", "values": [{"measurement": "% of control", "setting": "[8]", "result": 100, "unit": "%"}, {"measurement": "% of control", "setting": "[9]", "result": 73, "unit": "%"}, {"measurement": "% of control", "setting": "[10]", "result": 84, "unit": "%"}]}
{"smiles": "Cc1cc(F)c(C(=O)Nc2cccc(-c3nncn3C(C)C)n2)cc1-n1cnc(C2CC2)c1", "values": [{"measurement": "% of control", "setting": "[11]", "result": 46, "unit": "%"}, {"measurement": "% of control", "setting": "[12]", "result": 100, "unit": "%"}]}
{"smiles": "COCC(=O)NC/C=C/c1ccc2ncnc(Nc3ccc(Oc4ccc(C)nc4)c(C)c3)c2c1", "note": "[CP-724714]", "values": [{"measurement": "% of control", "setting": "[13]", "result": 100, "unit": "%"}]}
{"smiles": "CN1Cc2nccc(-c3cn(C)nc3-c3ccc(F)cc3)c2C1=O", "values": [{"measurement": "% of inhibition", "setting": "[14]", "result": 10, "unit": "%"}]}
{"smiles": "O[C@H]1CC[C@H](Nc2ncc3nc(Nc4c(F)cc(F)cc4F)n([C@H]4CCOC4)c3n2)CC1", "values": [{"measurement": "% of control", "setting": "[15]", "result": 80, "unit": "%"}, {"measurement": "% of control", "setting": "[16]", "result": 100, "unit": "%"}]}
